# Reference: ChEMBL document CHEMBL5236594, “Novel α7 nicotinic acetylcholine receptor modulators as potential antitussive agents” (Bioorg Med Chem Lett, 2023)
# pKi: −log10 of the molar value. Active and inactive are the calls of the source. The rule behind the calls is not given here.
# How the values were obtained:
# [1] = target: Neuronal acetylcholine receptor subunit alpha-7 (Homo sapiens, UniProt P36544); test: Binding affinity to alpha7 nAChR (unknown origin) assessed as dissociation constant
# Sequence of Neuronal acetylcholine receptor subunit alpha-7 (P36544 whole entry): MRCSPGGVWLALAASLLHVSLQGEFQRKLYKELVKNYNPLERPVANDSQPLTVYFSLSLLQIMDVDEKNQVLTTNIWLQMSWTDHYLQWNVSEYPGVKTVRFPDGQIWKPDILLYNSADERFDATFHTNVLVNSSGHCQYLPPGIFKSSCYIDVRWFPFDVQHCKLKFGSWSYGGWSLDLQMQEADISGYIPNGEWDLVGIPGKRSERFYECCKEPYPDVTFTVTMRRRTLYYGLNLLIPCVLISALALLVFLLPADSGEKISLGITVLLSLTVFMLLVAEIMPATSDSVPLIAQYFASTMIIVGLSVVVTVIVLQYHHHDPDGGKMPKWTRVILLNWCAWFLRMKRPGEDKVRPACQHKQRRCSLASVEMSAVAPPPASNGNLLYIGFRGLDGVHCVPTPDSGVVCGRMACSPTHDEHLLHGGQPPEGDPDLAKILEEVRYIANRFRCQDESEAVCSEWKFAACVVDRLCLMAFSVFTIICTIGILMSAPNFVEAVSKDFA
# [2] = target: Neuronal acetylcholine receptor; alpha4/beta2 (Homo sapiens, UniProt P17787+P43681); test: Binding affinity to alpha4beta2 nAChR (unknown origin) assessed as dissociation constant; format: protein-complex assay
# Sequence of Neuronal acetylcholine receptor; alpha4/beta2 (P17787 whole entry): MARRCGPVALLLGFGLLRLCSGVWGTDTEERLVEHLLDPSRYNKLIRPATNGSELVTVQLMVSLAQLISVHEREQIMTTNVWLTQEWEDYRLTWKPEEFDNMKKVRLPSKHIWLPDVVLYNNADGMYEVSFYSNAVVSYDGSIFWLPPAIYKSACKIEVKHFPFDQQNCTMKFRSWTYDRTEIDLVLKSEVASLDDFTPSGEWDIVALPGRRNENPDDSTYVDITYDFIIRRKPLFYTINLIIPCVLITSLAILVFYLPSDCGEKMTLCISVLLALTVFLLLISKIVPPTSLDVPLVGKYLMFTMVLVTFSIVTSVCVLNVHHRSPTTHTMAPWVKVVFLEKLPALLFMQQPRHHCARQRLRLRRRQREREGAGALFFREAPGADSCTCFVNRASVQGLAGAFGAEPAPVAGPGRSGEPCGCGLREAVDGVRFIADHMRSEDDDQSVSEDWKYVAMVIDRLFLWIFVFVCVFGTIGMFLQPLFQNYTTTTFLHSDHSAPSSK
# Sequence of Neuronal acetylcholine receptor; alpha4/beta2 (P43681 whole entry): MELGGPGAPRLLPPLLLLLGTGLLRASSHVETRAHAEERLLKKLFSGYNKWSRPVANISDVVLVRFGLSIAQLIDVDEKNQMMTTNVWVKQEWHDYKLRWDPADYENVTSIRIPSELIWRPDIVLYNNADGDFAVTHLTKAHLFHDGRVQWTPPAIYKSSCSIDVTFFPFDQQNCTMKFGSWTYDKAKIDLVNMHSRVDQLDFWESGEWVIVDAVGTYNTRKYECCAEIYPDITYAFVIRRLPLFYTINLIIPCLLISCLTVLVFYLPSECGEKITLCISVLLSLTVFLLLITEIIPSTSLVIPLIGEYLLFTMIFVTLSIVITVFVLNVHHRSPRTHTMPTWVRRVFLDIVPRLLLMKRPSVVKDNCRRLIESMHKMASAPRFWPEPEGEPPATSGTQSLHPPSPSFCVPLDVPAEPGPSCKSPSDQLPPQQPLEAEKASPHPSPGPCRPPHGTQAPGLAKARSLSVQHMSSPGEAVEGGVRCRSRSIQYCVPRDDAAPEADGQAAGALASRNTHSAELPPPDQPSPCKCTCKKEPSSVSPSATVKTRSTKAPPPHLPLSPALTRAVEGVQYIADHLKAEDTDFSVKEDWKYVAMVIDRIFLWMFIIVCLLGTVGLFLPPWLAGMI
# [3] = target: Neuronal acetylcholine receptor; alpha3/beta4 (Homo sapiens, UniProt P30926+P32297); test: Binding affinity to alpha3beta4 nAChR (unknown origin) assessed as dissociation constant; format: protein-complex assay
# Sequence of Neuronal acetylcholine receptor; alpha3/beta4 (P30926 whole entry): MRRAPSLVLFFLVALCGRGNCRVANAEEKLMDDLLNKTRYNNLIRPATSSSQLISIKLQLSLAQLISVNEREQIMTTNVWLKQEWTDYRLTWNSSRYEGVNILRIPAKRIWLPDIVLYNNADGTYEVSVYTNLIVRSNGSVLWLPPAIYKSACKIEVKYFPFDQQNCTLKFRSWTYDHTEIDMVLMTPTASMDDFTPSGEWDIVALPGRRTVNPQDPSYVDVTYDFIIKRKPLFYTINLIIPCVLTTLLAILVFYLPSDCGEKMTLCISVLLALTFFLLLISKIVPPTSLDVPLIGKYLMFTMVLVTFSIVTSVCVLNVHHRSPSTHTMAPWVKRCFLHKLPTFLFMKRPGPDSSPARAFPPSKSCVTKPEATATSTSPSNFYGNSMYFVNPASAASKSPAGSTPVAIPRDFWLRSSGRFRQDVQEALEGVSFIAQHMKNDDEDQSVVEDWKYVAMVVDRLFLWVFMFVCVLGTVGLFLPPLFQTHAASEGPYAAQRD
# Sequence of Neuronal acetylcholine receptor; alpha3/beta4 (P32297 whole entry): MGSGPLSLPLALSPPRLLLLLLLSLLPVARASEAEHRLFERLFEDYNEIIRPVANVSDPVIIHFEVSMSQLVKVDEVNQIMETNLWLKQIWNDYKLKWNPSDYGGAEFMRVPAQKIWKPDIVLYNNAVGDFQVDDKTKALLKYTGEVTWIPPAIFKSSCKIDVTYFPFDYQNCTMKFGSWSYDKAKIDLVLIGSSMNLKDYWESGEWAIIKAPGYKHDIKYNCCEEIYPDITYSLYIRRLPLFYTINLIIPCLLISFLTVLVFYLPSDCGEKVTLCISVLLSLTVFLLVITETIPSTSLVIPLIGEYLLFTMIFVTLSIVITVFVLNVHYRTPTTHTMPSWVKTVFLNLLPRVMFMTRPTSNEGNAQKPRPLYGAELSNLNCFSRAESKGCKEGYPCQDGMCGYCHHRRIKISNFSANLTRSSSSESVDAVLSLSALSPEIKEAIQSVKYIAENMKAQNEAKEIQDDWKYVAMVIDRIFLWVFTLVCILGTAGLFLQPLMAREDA
# Cavia porcellus [4] = test: Anti-tussive activity in guniea pig cough model assessed as suppression of cough frequency at 1 to 9.5 mg/kg, ip; format: functional, organism-based; settings: dose 1-9.5 mg/kg
# Cavia porcellus [5] = test: Anti-tussive activity in guniea pig cough model assessed as reduction in cumulative number of coughs at 1 to 9.5 mg/kg, ip; format: functional, organism-based; settings: dose 1-9.5 mg/kg
# Cavia porcellus [6] = test: Anti-tussive activity in guniea pig cough model assessed as reduction in cumulative number of coughs at 0.4 mg/kg, INH; format: functional, organism-based
# Cavia porcellus [7] = test: Anti-tussive activity in guniea pig cough model assessed as reduction in cumulative number of coughs at 1 to 2 mg/kg, IT; format: functional, organism-based; settings: dose 1-2 mg/kg
# Cavia porcellus [8] = test: Anti-tussive activity in guniea pig cough model assessed as reduction in cumulative number of coughs at 9.5 mg/kg, po; format: functional, organism-based
# Cavia porcellus [9] = test: Anti-tussive activity in guniea pig cough model assessed as reduction in cough inhibition period at 1 to 9.5 mg/kg, ip; format: functional, organism-based; settings: dose 1-9.5 mg/kg
# Cavia porcellus [10] = test: Anti-tussive activity in guniea pig cough model assessed as reduction in cough inhibition period at 0.1 to 0.4 mg/kg, INH; format: functional, organism-based; settings: dose 0.1-0.4 mg/kg
# [11] = Half life in po dosed guinea pig; format: ADME, organism-based, Cavia porcellus; settings: in vivo
# [12] = Half life in ip dosed guinea pig; format: ADME, organism-based, Cavia porcellus; settings: in vivo
# [13] = Half life in INSULFFLATION dosed guinea pig; format: ADME, organism-based, Cavia porcellus; settings: in vivo, inhaled or intranasal
# Cavia porcellus [14] = test: Anti-tussive activity in guniea pig cough model assessed as suppression of cough frequency at 3 to 30 mg/kg, ip; format: functional, organism-based; settings: dose 3-30 mg/kg
# Cavia porcellus [15] = test: Anti-tussive activity in guniea pig cough model assessed as reduction in cumulative number of coughs at 3 to 30 mg/kg, ip; format: functional, organism-based; settings: dose 3-30 mg/kg
# Cavia porcellus [16] = test: Anti-tussive activity in citric acid-induced guniea pig cough model assessed as reduction in cough count at 30 mg/kg, ip; format: functional, organism-based
# Cavia porcellus [17] = test: Anti-tussive activity in guniea pig cough model assessed as reduction in cumulative number of coughs at 30 mg/kg, ip; format: functional, organism-based
SMILES,pKi [1],pKi [2],pKi [3],further results
c1ccc(-c2ccc(O[C@@H]3C4CCN(CC4)[C@H]3Cc3cccnc3)nn2)cc1 (relative stereo),7.00,6.92,7.10,
c1cncc(C[C@H]2[C@H](Oc3ccc(-c4ccc5[nH]ccc5c4)cn3)C3CCN2CC3)c1,7.24,6.33,6.11,
c1cncc(C[C@@H]2[C@@H](Oc3nnc(-c4ccc5[nH]ccc5c4)s3)C3CCN2CC3)c1 (relative stereo),,6.66,6.36,Activity (Cavia porcellus [4]): Active; Activity (Cavia porcellus [5]): Active; Activity (Cavia porcellus [6]): Active; Activity (Cavia porcellus [7]): Active; Activity (Cavia porcellus [8]): inactive; Activity (Cavia porcellus [9]): Active; Activity (Cavia porcellus [10]): Active; half-life [11]: 1.5 h; half-life [12]: 1.7 h; half-life [13]: 3.2 h
c1cncc(C[C@H]2[C@H](Oc3cnc(-c4ccc5[nH]ccc5c4)cn3)C3CCN2CC3)c1 (relative stereo),6.62,6.64,6.40,
c1cncc(C[C@@H]2[C@@H](Oc3ccc(-c4ccc[nH]4)nn3)C3CCN2CC3)c1 (relative stereo),7.38,6.70,6.14,Activity (Cavia porcellus [14]): Active; Activity (Cavia porcellus [15]): inactive
c1cncc(C[C@H]2[C@H](Oc3ccc(-c4ccc5[nH]ccc5c4)nn3)C3CCN2CC3)c1 (relative stereo),8.85,7.14,6.14,Activity (Cavia porcellus [16]): Active
c1cncc(C[C@@H]2[C@@H](Oc3ccc4ccccc4n3)C3CCN2CC3)c1 (relative stereo),,6.85,6.10,
c1cncc(C[C@@H]2[C@@H](Oc3cc4ccccc4cn3)C3CCN2CC3)c1 (relative stereo),6.00,5.73,5.67,
Nc1nc2ccc(-c3ccc(O[C@H]4C5CCN(CC5)[C@@H]4Cc4cccnc4)nn3)cc2s1 (relative stereo),7.73,7.30,5.97,
c1ccc(-c2nnc(O[C@H]3C4CCN(CC4)[C@@H]3Cc3cccnc3)s2)cc1 (relative stereo),,6.48,6.47,
c1cncc(C[C@@H]2[C@H](Oc3ccc(-c4ccc5[nH]ccc5c4)nn3)C3CCN2CC3)c1 (relative stereo),,7.76,6.70,
COc1ccc2c3c1O[C@H]1[C@@H](O)C=C[C@H]4[C@@H](C2)N(C)CC[C@@]341,,,,Activity (Cavia porcellus [17]): Active
